According to US20150189844A1, “METHOD FOR […] RECOMBINATION” (Biogemma, priority 2012, published 2015):
Read-outs that look alike come from different tables or passages of the source.

Experiments:
I-SceI:GR [1] = settings: one week
Method: (§1) Embryos isolated from selfed plants containing the TL and DL were placed onto a regeneration medium according to Ishida et al. (Ishida et al., 1996) lacking the kanamycin selective agent. For first experiment, LS-AS medium was complemented by 0, 30 or 50 μM dexamethasone and after one week transferred sequentially to LSD1.5, LSZ and ½LSF medium lacking dexamethasone and containing 50 mg·L−1 of kanamycin. For the second experiment, callus was developed for 3 days on LS-AS, 1 week on LSD1.5 and 3 weeks on LSZ medium. Then, callus was cultivated 1 week on LSZ medium complemented by 0 μM, 30 μM or 50 μM of dexamethasone and selected for 2 weeks on LSZ and then ½ LSF medium complemented by 50 mg·L−1 of kanamycin. GFP fluorescence of callus was visualized under the fluorescence stereomicroscope (Leica MZ16F) with a GFP2 filter.

I-SceI:GR [2] = tested on: I-SceI:GR
Method: as §1
Plant regeneration from maize leaves has not been reported but calli derived from immature maize embryos are routinely used to regenerate plants (Lu et al., 1983). Embryos isolated from immature kernels of selfed F2 plants containing the TL and the DL were placed on callus induction medium with dexamethasone at 0 μM (control), 30 μM or 50 μM.

C[C@@H]1C[C@H]2[C@@H]3CCC4=CC(=O)C=C[C@]4(C)[C@@]3(F)[C@@H](O)C[C@]2(C)[C@@]1(O)C(=O)CO [Dexamethasone, dexamethasone]
Mutations in TL I-SceI site (I-SceI:GR [1]; TL1/DL calli, 30 μM): 76 | Mutations in TL I-SceI site (I-SceI:GR [1]; TL1/DL calli, 50 μM): 76 | Mutations in TL I-SceI site (I-SceI:GR [1]; TL2/DL calli, 30 μM): 15 | Mutations in TL I-SceI site (I-SceI:GR [1]; TL2/DL calli, 50 μM): 36 | GT Frequency, discovered kanamycin resistant events/extracted embryos (I-SceI:GR [2]; TL1 × DL, 30 μM): 0.39% | GT Frequency, discovered kanamycin resistant events/extracted embryos (I-SceI:GR [2]; TL1 × DL, 50 μM): 0.55% | Number of kanamycin resistant events (I-SceI:GR [2]; TL1 × DL, 181 extracted embryos, 50 μM): 1 | Number of kanamycin resistant events (I-SceI:GR [2]; TL1 × DL, 255 extracted embryos, 30 μM in callus induction medium): 1 | GT Frequency, discovered kanamycin resistant events/extracted embryos (I-SceI:GR [2]; TL2 × DL, 30 μM): 0.53% | GT Frequency, discovered kanamycin resistant events/extracted embryos (I-SceI:GR [2]; TL2 × DL, 50 μM): 0.27% | Number of kanamycin resistant events (I-SceI:GR [2]; TL2 × DL, 374 extracted embryos, 50 μM): 1 | Number of kanamycin resistant events (I-SceI:GR [2]; TL2 × DL, 563 extracted embryos, 30 μM): 3
